Assay results as given in paper doi:10.1101/2024.10.10.617599v1 (biorxiv, 2024).
Where a name gives a salt, the structure may show the parent alone.

Tests used:
rP2Y12R [1] = target: T1, rP2Y12R (Rattus norvegicus, UniProt Q9EPX4); assay: radioligand saturation binding, HEK […] membranes
hP2Y12R = hP2Y12R (Homo sapiens, UniProt Q9H244); assay: radioligand displacement of [3H]AZ12464237; assay type: binding
rP2Y12R [2] = target: T1, rP2Y12R; assay: radioligand displacement of [3H]AZ12464237; assay type: binding

T1 sequence (Q9EPX4 whole entry): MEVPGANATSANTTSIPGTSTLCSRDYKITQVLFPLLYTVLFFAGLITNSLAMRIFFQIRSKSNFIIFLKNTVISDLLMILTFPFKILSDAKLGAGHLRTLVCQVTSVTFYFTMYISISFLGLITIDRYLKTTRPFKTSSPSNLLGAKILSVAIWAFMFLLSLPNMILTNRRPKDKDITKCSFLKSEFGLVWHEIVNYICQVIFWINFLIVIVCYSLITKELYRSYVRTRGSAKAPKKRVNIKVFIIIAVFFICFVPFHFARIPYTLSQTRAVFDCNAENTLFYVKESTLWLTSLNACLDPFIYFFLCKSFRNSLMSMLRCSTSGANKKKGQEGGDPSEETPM
Chain of hP2Y12R (Q9H244 whole entry): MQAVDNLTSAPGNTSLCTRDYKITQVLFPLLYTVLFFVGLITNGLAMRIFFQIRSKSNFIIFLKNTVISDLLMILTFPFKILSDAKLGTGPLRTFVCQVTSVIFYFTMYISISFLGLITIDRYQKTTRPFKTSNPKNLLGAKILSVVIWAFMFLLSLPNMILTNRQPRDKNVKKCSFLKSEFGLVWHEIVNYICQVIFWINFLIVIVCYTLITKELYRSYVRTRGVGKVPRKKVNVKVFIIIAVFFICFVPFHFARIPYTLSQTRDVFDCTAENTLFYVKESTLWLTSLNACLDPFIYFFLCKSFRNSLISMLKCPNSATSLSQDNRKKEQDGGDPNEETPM

SMILES | Kd (rP2Y12R [1]) | Ki (hP2Y12R) | Ki (rP2Y12R [2])
CCOC(=O)c1cc(C#N)c(N2CC(NC(=O)NS(=O)(=O)c3ccc(Cl)s3)C2)nc1C [AZ12464237, Ethyl 6-(3-(3-((5-chlorothiophen-2-yl)sulfonyl)ureido)azetidin-1-yl)-5-cyano-2-methylnicotinate] | 16.6 ± 3.37 nM | – | –
CCCSc1nc(N[C@@H]2C[C@H]2c2ccc(F)c(F)c2)c2nnn([C@@H]3C[C@H](OCCO)[C@@H](O)[C@H]3O)c2n1 [ticagrelor] | – | 20.1 ± 0.25 nM | 48.8 ± 15.2 nM
CCOC(=O)c1cc(C#N)c(N2CCC(C(=O)NS(=O)(=O)Cc3ccccc3)CC2)nc1C [AZD1283, Ethyl 5-cyano-2-methyl-6-[4-[[[(phenylmethyl)sulfonyl]amino]carbonyl]-1-piperidinyl]-3-pyridinecarboxylate] | – | 2.66 ± 0.6 nM | –
CSc1nc(N)c2ncn([C@@H]3O[C@H](COP(=O)(O)OP(=O)(O)O)[C@@H](O)[C@H]3O)c2n1 [2MeSADP, 2-methylthio-adenosine-5’-diphosphate] | – | 18.9 ± 2.61 nM | –
S=C=Nc1cccc(NC(=S)NCCCCNC(=S)Nc2cccc(N=C=S)c2)c1 [MRS2578] | – | > 100000 nM | –
Cc1nc(N=Nc2cc([N+](=O)[O-])ccc2Cl)c(COP(=O)(O)O)c(C=O)c1O [MRS2211, 2-[(2-chloro-5-nitrophenyl)azo]-5-hydroxy-6-methyl-3-[(phosphonooxy)methyl]-4-pyridinecarboxaldehyde disodium salt] | – | 3240 ± 1850 nM | –

Results, then the molecule that gave them:

Kd (rP2Y12R [1]) | Ki (hP2Y12R) | Ki (rP2Y12R [2]) | SMILES
– | > 10000 nM | – | O=C(O)c1cc(-c2ccc(C3CCNCC3)cc2)c2ccc(-c3ccc(C(F)(F)F)cc3)cc2c1 [PPTN·HCl, 4-[4-(4-piperidinyl)phenyl]-7-[4-(trifluoromethyl)phenyl]-2-naphthalenecarboxylic acid hydrochloride]
– | 7 ± 0.54 nM | 55 ± 14.3 nM | CNc1cc2[nH]c(=O)n(-c3ccc(NC(=O)NS(=O)(=O)c4ccc(Cl)s4)cc3)c(=O)c2cc1F [elinogrel, 5-chloro-N-[[[4-[6-Fluoro-1,4-dihydro-7-(methylamino)-2,4-dioxo-3(2H)-quinazolinyl]phenyl]amino]carbonyl]-2-thiophenesulfonamide]
– | 25.6 ± 3.05 nM | – | Nc1c(S(=O)(=O)O)cc(Nc2ccc(Nc3ccccc3)c(S(=O)(=O)O)c2)c2c1C(=O)c1ccccc1C2=O [PSB0739]
